ChEMBL document CHEMBL5608204, “Disulfide bond replacement with non-reducible side chain to tail macrolactamization for the development of potent and selective CXCR4 peptide antagonists endowed with flanking binding sites” (Eur J Med Chem, 2024)
Blank lines part the entries; values can stand above or below the compound they belong to. The source made the active and inactive calls. The calls are words filed in the database; no cut-off is given here.

Tests used:
[1] = target: T1, C-X-C chemokine receptor type 4 (Homo sapiens, UniProt P61073); assay: Antagonist activity at CXCR4 in human CCRF-CEM cells assessed as inhibition of anti-CXCR4 binding preincubated with compound for 45 mins followed by anti-CXCR4 PE antibody addition and measured after 30 mins by fluorescence based competitive binding assay; format: functional, cell-based
T1 sequence (P61073 whole entry): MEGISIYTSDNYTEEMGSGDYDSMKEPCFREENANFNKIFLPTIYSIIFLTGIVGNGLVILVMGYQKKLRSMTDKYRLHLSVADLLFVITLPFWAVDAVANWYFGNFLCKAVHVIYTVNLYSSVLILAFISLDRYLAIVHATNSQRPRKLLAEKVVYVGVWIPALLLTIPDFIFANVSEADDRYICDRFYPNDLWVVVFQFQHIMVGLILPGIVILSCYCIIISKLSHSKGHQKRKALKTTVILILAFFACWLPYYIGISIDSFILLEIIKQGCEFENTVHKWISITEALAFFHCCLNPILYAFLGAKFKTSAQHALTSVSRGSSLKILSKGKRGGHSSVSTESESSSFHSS

[2] = target: T2, Atypical chemokine receptor 3 (Homo sapiens, UniProt P25106); assay: Binding affinity to CXCR7 (unknown origin) overexpressing human MCF7 cells by flow cytometry analysis; format: cell-based
T2 sequence (P25106 whole entry): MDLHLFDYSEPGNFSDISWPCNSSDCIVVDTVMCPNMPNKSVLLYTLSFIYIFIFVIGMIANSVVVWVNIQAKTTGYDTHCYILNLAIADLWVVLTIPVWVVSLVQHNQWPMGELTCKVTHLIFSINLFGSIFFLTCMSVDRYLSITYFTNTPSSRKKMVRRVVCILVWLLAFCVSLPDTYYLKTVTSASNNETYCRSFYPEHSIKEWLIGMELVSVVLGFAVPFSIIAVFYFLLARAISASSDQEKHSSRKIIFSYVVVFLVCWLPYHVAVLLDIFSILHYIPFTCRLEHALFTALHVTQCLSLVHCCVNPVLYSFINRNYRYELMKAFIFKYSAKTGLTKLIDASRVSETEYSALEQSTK

CCRF-CEM [3] = assay: Inhibition of CXCL12-induced cell migration in human CCRF-CEM cells measured after 6 hrs by DAPI staining based analysis; format: functional; conditions: dose 0.01-10 µM
[4] = target: T1, C-X-C chemokine receptor type 4; assay: Agonist activity at CXCR4 (unknown origin) transfected with CHO cells cotransfected with CXCR4-GFP assessed as induction of CXCR4 internalization at 0.1 to 1 uM incubated for 45 mins by DAPI staining based microscopy analysis; format: functional, cell-based; conditions: dose 0.1-1 µM
[5] = target: T1, C-X-C chemokine receptor type 4; assay: Agonist activity at CXCR4 in human CEM cells assessed as induction of CXCR4 internalization at 0.1 to 1 uM incubated for 45 mins by flow cytometry analysis; format: functional, cell-based; conditions: dose 0.1-1 µM
[6] = Stability of the compound assessed as parent compound remaining in PBS buffer at pH 7.4 at 10 uM measured upto 8 hr in presence of glutathione by RP-HPLC analysis; format: physicochemical; conditions: pH 7.4, 8 h
[7] = target: T2, Atypical chemokine receptor 3; assay: Inhibition of CXCR7 (unknown origin) overexpressing human MCF7 cells at upto 10 uM by flow cytometry analysis relative to control; format: cell-based
[8] = target: T1, C-X-C chemokine receptor type 4; assay: Antagonist activity at CXCR4 (unknown origin) transfected with CHO cells cotransfected with CXCR4-GFP assessed as inhibition of CXCL12 induced CXCR4 internalization at upto 1 uM preincubated for 45 mins followed by CXCL12 stimulation and measured after 30 to 90 mins by DAPI staining based microscopy analysis; format: functional, cell-based; conditions: time 75-135 min
[9] = target: T1, C-X-C chemokine receptor type 4; assay: Displacement of 125I-CXCL12 from CXCR4 in human CCRF-CEM cells measured after 1 hr by competitive binding assay; format: cell-based
[10] = Stability of the compound assessed as parent compound remaining in PBS buffer at pH 7.4 at 10 uM measured after 1 hr in presence of glutathione by RP-HPLC analysis; format: physicochemical; conditions: PBS buffer with glutathione, read-out: Stability
[11] = Stability of the compound assessed as parent compound remaining in PBS buffer at pH 7.4 at 10 uM measured after 8 hr in presence of glutathione by RP-HPLC analysis; format: physicochemical; conditions: PBS buffer with glutathione, read-out: Stability
[12] = target: T1, C-X-C chemokine receptor type 4; assay: Antagonist activity at CXCR4 in human CEM cells assessed as inhibition of CXCL12-induced CXCR4 internalization at 0.1 to 1 uM preincubated for 45 mins followed by CXCL12 stimulation and measured after 30 mins by flow cytometry analysis; format: functional, cell-based; conditions: filed as antagonist, dose 0.1-1 µM, time 75.0 min
[13] = target: T2, Atypical chemokine receptor 3; assay: Binding affinity to CXCR7 (unknown origin) overexpressing human MCF7 cells at upto 10 uM by flow cytometry analysis; format: cell-based
CCRF-CEM [14] = assay: Inhibition of CXCL12-induced cell migration in human CCRF-CEM cells at 0.01 to 10 uM measured after 6 hrs by DAPI staining based analysis; format: functional; conditions: dose 0.01-10 µM

- IC50 [1]: > 10000 nM
Structure (SMILES): CC(=O)N[C@@H](CCCNC(=N)N)C(=O)N[C@@H](C)C(=O)N[C@@H]1CNC(=O)[C@H](CCC(=O)O)NC(=O)[C@H](Cc2c[nH]cn2)NC(=O)[C@H](Cc2ccc3ccccc3c2)NC(=O)[C@H](CCCNC(=N)N)NC1=O

- IC50 ([1]; ccrf-cem): 780 nM
Structure (SMILES): CC(=O)N[C@@H](CCCNC(=N)N)C(=O)N[C@@H](C)C(=O)N[C@@H]1CCNC(=O)[C@H](CCC(=O)O)NC(=O)[C@H](Cc2c[nH]cn2)NC(=O)[C@H](Cc2ccc3ccccc3c2)NC(=O)[C@H](CCCNC(=N)N)NC1=O

- IC50 [1]: 1 nM
- remaining at 1 h, 10 µM [10]: ~88%
- remaining at 8 h, 10 µM [11]: ~52%
- IC50 [9]: 4.7 nM
Structure (SMILES): CC(=O)N[C@@H](CCCNC(=N)N)C(=O)N[C@@H](C)C(=O)N[C@@H]1CSSC(C)(C)[C@@H](C(=O)O)NC(=O)[C@H](Cc2cnc[nH]2)NC(=O)[C@H](Cc2ccc3ccccc3c2)NC(=O)[C@H](CCCNC(=N)N)NC1=O

- IC50 ([9]; ccrf-cem): 36 nM
Structure (SMILES): CC(=O)N[C@@H](CCCNC(=N)N)C(=O)N[C@@H](C)C(=O)N[C@@H]1Cn2cc(nn2)C[C@@H](C(=O)O)NC(=O)[C@H](Cc2c[nH]cn2)NC(=O)[C@H](Cc2ccc3ccccc3c2)NC(=O)[C@H](CCCNC(=N)N)NC1=O

- IC50 ([1]; ccrf-cem): > 10000 nM
Structure (SMILES): CC(=O)N[C@@H](CCCNC(=N)N)C(=O)N[C@@H](C)C(=O)N[C@@H]1CCCNC(=O)[C@H](CCC(=O)O)NC(=O)[C@H](Cc2c[nH]cn2)NC(=O)[C@H](Cc2ccc3ccccc3c2)NC(=O)[C@H](CCCNC(=N)N)NC1=O

- IC50 ([1]; ccrf-cem): 113 nM
Structure (SMILES): CC(=O)N[C@@H](CCCNC(=N)N)C(=O)N[C@@H](C)C(=O)N[C@@H]1CNC(=O)[C@H](CCC(C)C)NC(=O)[C@H](Cc2c[nH]cn2)NC(=O)[C@H](Cc2ccc3ccccc3c2)NC(=O)[C@H](CCCNC(=N)N)NC1=O

- IC50 ([1]; ccrf-cem): 200 nM
Structure (SMILES): CC(=O)N[C@@H](CCCNC(=N)N)C(=O)N[C@@H](C)C(=O)N[C@@H]1CCNC(=O)[C@H](CC(=O)O)NC(=O)[C@H](Cc2c[nH]cn2)NC(=O)[C@H](Cc2ccc3ccccc3c2)NC(=O)[C@H](CCCNC(=N)N)NC1=O

- IC50 ([1]; ccrf-cem): 344 nM
Structure (SMILES): CC(=O)N[C@@H](CCCNC(=N)N)C(=O)N[C@@H](C)C(=O)N[C@@H]1CNC(=O)[C@H](Cc2ccccc2)NC(=O)[C@H](Cc2c[nH]cn2)NC(=O)[C@H](Cc2ccc3ccccc3c2)NC(=O)[C@H](CCCNC(=N)N)NC1=O

- IC50 [1]: 100 nM
Structure (SMILES): CC(=O)N[C@@H](CCCNC(=N)N)C(=O)N[C@@H](C)C(=O)N[C@@H]1CNC(=O)[C@@H](CC(=O)O)NC(=O)[C@H](Cc2c[nH]cn2)NC(=O)[C@H](Cc2ccc3ccccc3c2)NC(=O)[C@H](CCCNC(=N)N)NC1=O

Continued, compound first:

Structure (SMILES): CC(=O)N[C@@H](CCCNC(=N)N)C(=O)N[C@@H](C)C(=O)N[C@H]1CNC(=O)[C@@H](CCC(=O)O)NC(=O)[C@H](Cc2c[nH]cn2)NC(=O)[C@H](Cc2ccc3ccccc3c2)NC(=O)[C@H](CCCNC(=N)N)NC1=O
- IC50 [2]: > 10000 nM
- IC50 [1]: 50 nM
- inhibition (CCRF-CEM [3]): Dose-Dependent Effect
- Activity [4]: inactive
- Activity [5]: inactive
- Stability [6]: Stable
- inhibition [7]: 37%
- Activity [8]: inactive
- IC50 [9]: 48 nM

Structure (SMILES): CC(=O)N[C@@H](CCCNC(=N)N)C(=O)N[C@@H](C)C(=O)N[C@@H]1CCn2nncc2C[C@@H](C(=O)O)NC(=O)[C@H](Cc2c[nH]cn2)NC(=O)[C@H](Cc2ccc3ccccc3c2)NC(=O)[C@H](CCCNC(=N)N)NC1=O
- IC50 ([9]; ccrf-cem): 30 nM

Structure (SMILES): CC(=O)N[C@@H](CCCNC(=N)N)C(=O)N[C@@H](C)C(=O)N[C@H]1CNC(=O)[C@@H](CC(=O)O)NC(=O)[C@H](Cc2c[nH]cn2)NC(=O)[C@H](Cc2ccc3ccccc3c2)NC(=O)[C@H](CCCNC(=N)N)NC1=O
- IC50 [1]: 187 nM

Structure (SMILES): CC(=O)N[C@@H](CCCNC(=N)N)C(=O)N[C@@H](C)C(=O)N[C@@H]1CCCCNC(=O)[C@H](CC(=O)O)NC(=O)[C@H](Cc2c[nH]cn2)NC(=O)[C@H](Cc2ccc3ccccc3c2)NC(=O)[C@H](CCCNC(=N)N)NC1=O
- IC50 ([1]; ccrf-cem): 1710 nM

Structure (SMILES): CC(=O)N[C@@H](CCCNC(=N)N)C(=O)N[C@@H](C)C(=O)N[C@@H]1CCCNC(=O)[C@H](CC(=O)O)NC(=O)[C@H](Cc2c[nH]cn2)NC(=O)[C@H](Cc2ccc3ccccc3c2)NC(=O)[C@H](CCCNC(=N)N)NC1=O
- IC50 ([1]; ccrf-cem): 960 nM

Structure (SMILES): CC(=O)N[C@@H](CCCNC(=N)N)C(=O)N[C@@H](C)C(=O)N[C@@H]1CNC(=O)[C@H](CCC(N)=O)NC(=O)[C@H](Cc2c[nH]cn2)NC(=O)[C@H](Cc2ccc3ccccc3c2)NC(=O)[C@H](CCCNC(=N)N)NC1=O
- IC50 ([1]; ccrf-cem): 243 nM

Structure (SMILES): CC(=O)N[C@@H](CCCNC(=N)N)C(=O)N[C@@H](C)C(=O)N[C@@H]1CCCCNC(=O)[C@H](CCC(=O)O)NC(=O)[C@H](Cc2c[nH]cn2)NC(=O)[C@H](Cc2ccc3ccccc3c2)NC(=O)[C@H](CCCNC(=N)N)NC1=O
- IC50 ([1]; ccrf-cem): > 10000 nM

Structure (SMILES): CC(=O)N[C@@H](CCCNC(=N)N)C(=O)N[C@@H](C)C(=O)N[C@@H]1CSSC(C)(C)[C@H](C(=O)O)NC(=O)[C@H](Cc2c[nH]cn2)NC(=O)[C@H](Cc2ccc3ccccc3c2)NC(=O)[C@H](CCCNC(=N)N)NC1=O
- Activity [4]: inactive
- Activity [5]: inactive
- Activity [12]: Active
- Activity [13]: inactive
- inhibition (CCRF-CEM [14]): Active
